From patent US4272529A, “O-Alcoxycarbonylphenyl esters of anthranilic acid with therapeutical activity, method for their preparation and related pharmaceutical composition” (Simes S.p.A., priority 1979, dated 1981)
Values joined by “and” are separate entries in the source; they are usually repeats but may differ in a detail not shown here. Equal entries are not always repeated. Where two headings read alike, the source gives them in different places.

Key:
[1] = test system: carrageenin induced edema in the rat; assay: Inhibition of the carrageenin induced edema in the rat, further series (right rear paw vs left rear paw); type: in vivo; conditions: for Inhibition of the carrageenin induced edema: 3 hours after carrageenin
Protocol: The volume difference between the two paws was compared with the values of a control group. In this case too, the carrageenin was injected one hour after the oral administration of the substances being tested as an aqueous suspension; the edema was evaluated 3 hours after the carrageenin injection.

[2] = test system: adjuvant induced arthritis in the rat; assay: Adjuvant induced arthritis in the developing phase; type: in vivo, Lewis rats; conditions: for Paw volume, injected paw (3rd day) / Paw volume, non injected paw (14th day): unit assumed
Protocol: In the first one, relating to the developing arthritis (Table 4), groups of six Lewis rats have been tested for each dosage; a group was used as the control. Suspensions of the compound being tested were administered for 14 days, starting on the same day of the adjuvant inoculation (0.3 mg of Mycobacterium butyricum in 0.1 ml of mineral oil) in the plantar surface of the right rear paw. The body weights and the volumes of both paws were measured at the third and fourteenth days; the body weights were taken as the toxicity indexes; the paw volumes were used for the calculation of the percent inhibition of the swelling as determined by the adjuvant induced arthritis (D. Walz et al., J. Pharmacol. Exper. Therap., 178, 223, 1971).

[3] = test system: gastric tissues in the rat
Protocol: (§1) According to the second experimental model of adjuvant induced arthritis, there were studied the effects of the tested compounds in the disease already developed for 14 days; the substances were daily administered to groups of six rats for each dosage, from the 14th to the 18th day. […] There was also investigated the irritating property of the compound with respect to the gastric tissues in the rat.
The substances were administered as an aqueous suspension and the animals ware sacrificed after either 4 or 24 hours; the stomachs were removed, opened, washed under tap water and examined.
As regards the 4 hour test (Table 7), the following scoring was used, relating to the hemorrhage degree:
1=one or two points of light hemorrhage
2=some points of light hemorrhage
4=very serious hemorrhages.
In this case too the sum of the scores of three rats for each dosage is reported.

[4] = test system: adjuvant induced arthritis in the rat; conditions: for Non injected paw, 18th day, inhibition % / Non injected paw, 18th day, volume: daily 14th to 18th day
Source text: as §1

[5] = test system: carragenin induced edema in the paw of rat; assay: Carragenin induced edema in the paw of rat, 50% inhibiting oral dose; type: in vivo; conditions: for ED50: 1 hour before carrageenin, 3 to 4 hours after carrageenin
Protocol: The edema was induced by injecting the carrageenin (0.1 ml of the 1% suspension in physiological solution) in the plantar aponeurosis of the rear paw of the rat one hour after the oral administration of the tested substances; the edema inhibition was evaluated, 3 to 4 hours after the carrageenin injection, from the difference between the volumes of the paw before and after the carragenin injection with respect to a group of control animals.

in vivo = conditions: mouse, po
[6] = test system: gastric tissues in the rat; assay: Acute gastric irritation in the rat (24 hours); type: in vivo; conditions: for Acute gastric irritation score: sum of scores (0-4) of three rats
Protocol: The following score scale was used for the 24 hour test (Table 6): 0=no lesion or hemorrhage 1=one or two light lesions with hemorrhage 2=some light lesions with hemorrhage 3=some lesions with hemorrhage. […] 4=very serious lesions with hemorrhage. There were used three rats per each dosage and the sum of the scores was made.

mouse = conditions: in vivo
Toxicity in the rat = conditions: in vivo
Protocol: In the rat too the toxicity of compound I is very low (4,500 mg/kg).

CC(=O)Oc1ccccc1C(=O)O [Acetylsalicylic acid, acetylsalicylic acid]
Inhibition of the carrageenin induced edema ([1]; 50 mg/kg os): 12%
Inhibition of the carrageenin induced edema ([1]; 100 mg/kg os): 35%
Inhibition of the carrageenin induced edema ([1]; 200 mg/kg os): 43%
Inhibition %, injected paw (3rd day) ([2]; 100 mg/kg os): 30%
Inhibition %, non injected paw (14th day) ([2]; 100 mg/kg os): 33%
Paw volume, injected paw (3rd day) ([2]; 100 mg/kg os): 1.65 mL
Paw volume, non injected paw (14th day) ([2]; 100 mg/kg os): 1.49 mL
Inhibition %, injected paw (3rd day) ([2]; 200 mg/kg os): 40%
Inhibition %, non injected paw (14th day) ([2]; 200 mg/kg os): 63%
Paw volume, injected paw (3rd day) ([2]; 200 mg/kg os): 1.53 mL
Paw volume, non injected paw (14th day) ([2]; 200 mg/kg os): 1.26 mL
Acute gastric irritation score ([3]; 150 mg/kg os, 4 hours, sum of hemorrhage scores (0-4) of three rats): 7
Non injected paw, 18th day, inhibition % ([4]; 100 mg/kg os): 37%
Non injected paw, 18th day, volume ([4]; 100 mg/kg os): 2.10
Non injected paw, 18th day, inhibition % ([4]; 200 mg/kg os): 47%
Non injected paw, 18th day, volume ([4]; 200 mg/kg os): 1.93

CCCCC1C(=O)N(c2ccccc2)N(c2ccccc2)C1=O [Phenylbutazone, phenylbutazone]
Inhibition of the carrageenin induced edema ([1]; 50 mg/kg os): 34%
Inhibition %, injected paw (3rd day) ([2]; 25 mg/kg os): 39%
Inhibition %, non injected paw (14th day) ([2]; 25 mg/kg os): 42%
Paw volume, injected paw (3rd day) ([2]; 25 mg/kg os): 1.66 mL
Paw volume, non injected paw (14th day) ([2]; 25 mg/kg os): 1.52 mL
Non injected paw, 18th day, inhibition % ([4]; 25 mg/kg os): 46%
Non injected paw, 18th day, volume ([4]; 25 mg/kg os): 1.95

COC(=O)c1ccccc1O [Methyl salicylate, methyl salicylate]
ED50 [5]: 289 mg/kg and 1900 µmol/kg
LD50 (in vivo): 1160 mg/kg and 7600 µmol/kg

COc1ccc2c(c1)c(CC(=O)O)c(C)n2C(=O)c1ccc(Cl)cc1 [Indomethacin, indomethacin]
Inhibition of the carrageenin induced edema ([1]; 5 mg/kg os): 40%
Inhibition %, injected paw (3rd day) ([2]; 1 mg/kg os): 39%
Inhibition %, non injected paw (14th day) ([2]; 1 mg/kg os): 32%
Paw volume, injected paw (3rd day) ([2]; 1 mg/kg os): 1.63 mL
Paw volume, non injected paw (14th day) ([2]; 1 mg/kg os): 1.55 mL
Non injected paw, 18th day, inhibition % ([4]; 1 mg/kg os): 38%
Non injected paw, 18th day, volume ([4]; 1 mg/kg os): 2.06
Acute gastric irritation score ([6]; 40 mg/kg os): 5

O=C(O)c1ccccc1Nc1cccc(C(F)(F)F)c1 [Flufenamic acid, flufenamic acid]
ED50 [5]: 112 mg/kg and 400 µmol/kg
LD50 (in vivo): 875 mg/kg and 3100 µmol/kg

COC(=O)c1ccccc1OC(=O)c1ccccc1Nc1cccc(C(F)(F)F)c1 [Compound I, N-m-trifluoromethyl-phenylanthranilate of O-methoxycarbonylphenyl]
Inhibition of the carrageenin induced edema ([1]; 1 mg/kg os): 0%
Inhibition of the carrageenin induced edema ([1]; 1.5 mg/kg os): 24%
Inhibition of the carrageenin induced edema ([1]; 5 mg/kg os): 21%
Inhibition of the carrageenin induced edema ([1]; 10 mg/kg os): 34%
Inhibition of the carrageenin induced edema ([1]; 25 mg/kg os): 42%
Inhibition of the carrageenin induced edema ([1]; 50 mg/kg os): 52%
ED30 ([1]; Rattus norvegicus, po, os, dose for which a 30% inhibition is obtained, read-out: ED30 (approximately)): ~8 mg/kg
Activity in carrageenin induced edema (in words) ([1]; rat, oral, compared with reference drugs): higher than that of aspirin and phenylbutazone, and lower than that of indomethacin
Inhibition %, injected paw (3rd day) ([2]; 5 mg/kg os): 48%
Inhibition %, non injected paw (14th day) ([2]; 5 mg/kg os): 10%
Paw volume, injected paw (3rd day) ([2]; 5 mg/kg os): 1.5 mL
Paw volume, non injected paw (14th day) ([2]; 5 mg/kg os): 1.64 mL
Inhibition %, injected paw (3rd day) ([2]; 10 mg/kg os): 53%
Inhibition %, non injected paw (14th day) ([2]; 10 mg/kg os): 47%
Paw volume, injected paw (3rd day) ([2]; 10 mg/kg os): 1.53 mL
Paw volume, non injected paw (14th day) ([2]; 10 mg/kg os): 1.47 mL
Inhibition %, injected paw (3rd day) ([2]; 25 mg/kg os): 36%
Inhibition %, non injected paw (14th day) ([2]; 25 mg/kg os): 35%
Paw volume, injected paw (3rd day) ([2]; 25 mg/kg os): 1.79 mL
Paw volume, non injected paw (14th day) ([2]; 25 mg/kg os): 1.67 mL
Increase of the weight of the rats (in words) ([2]; index of poor toxicity): normal
Inhibiting effect in developing arthritis (in words) ([2]; rat, in vivo): strong inhibiting effect
ED50 [5]: 176 mg/kg and 420 µmol/kg
Anti-inflammatory activity (in words) ([5]; in terms of molar doses): like that of the flufenamic acid and higher than that of the methyl salicylate and that of the equimolar mixture of methyl salicylate and of flufenamic acid
Ulcerogenic action (in words) ([3]; rat, in vivo): highly less ulcerogenic than indomethacin and than acetylsalicylic acid
Acute toxicity (in words) (mouse): relevantly less toxic than the reference substances as well as than their mixture
Non injected paw, 18th day, inhibition % ([4]; 5 mg/kg os): 27%
Non injected paw, 18th day, volume ([4]; 5 mg/kg os): 2.16
Non injected paw, 18th day, inhibition % ([4]; 10 mg/kg os): 46%
Non injected paw, 18th day, volume ([4]; 10 mg/kg os): 1.82
Non injected paw, 18th day, inhibition % ([4]; 25 mg/kg os): 100%
Non injected paw, 18th day, volume ([4]; 25 mg/kg os): 1.04
Activity in already developed arthritis (in words) ([4]; compared with reference drugs): more active than acetylsalicylic acid and than phenylbutazone
Acute gastric irritation score ([6]; 25 mg/kg os): 1
Acute gastric irritation score ([6]; 50 mg/kg os): 1
Acute gastric irritation score ([6]; 100 mg/kg os): 2
Acute gastric irritation score ([6]; 200 mg/kg os): 1
Acute gastric irritation score ([6]; 400 mg/kg os): 1
Acute gastric irritation score ([6]; 800 mg/kg os): 3
Acute gastric irritation score ([6]; 1600 mg/kg os): 2
Ulcerogenic / gastric irritating action (in words) ([6]; compared with reference drugs): highly less ulcerogenic than indomethacin and than acetylsalicylic acid
LD50 (Toxicity in the rat): 4500 mg/kg
LD50 (in vivo): 9500 mg/kg and 22800 µmol/kg
